Reference: US9586962B2, “Disubstituted octahydropyrrolo [3,4-C] pyrroles as orexin receptor modulators” (Janssen Pharmaceutica NV, priority 2011, dated 2017)

Target: human orexin 2 receptor (Homo sapiens (Human), UniProt O43614)
Assay: Human orexin 2 receptor Ca2+ mobilization assay (FLIPR, PFSK cells, orexin B 100 nM)
Format: cell-based
Conditions: modified Cheng-Prusoff correction, read-out: OR 2 Kb
Protocol: Human Orexin 2 Receptor Ca^2+ Mobilization Assay
Cells were seeded on to 96-well Packard viewplates at a density of 50,000 cells/well and incubated overnight at 37° C., 5% CO2. The cells were dye-loaded with 4 μM Ca^2+ dye Fluo-3AM in serum-free DMEM/F-12 with 2.5 mM probenecid and incubated at 37° C., 5% CO2 for one hour. Cells were pre-incubated with compounds (diluted in DMEM/F-12) for 30 minutes before agonist (orexin B, 100 nM) stimulation. Ligand-induced Ca^2+ release was measured using a Fluorometric Imaging Plate Reader (FLIPR, Molecular Devices, Sunnyvale, Calif.). Functional responses were measured as peak fluorescence intensity minus basal. The concentration of agonist that produced a half-maximal response is represented by the EC50 value. Antagonistic potency values were converted to apparent pKB values using a modified Cheng-Prusoff correction. Apparent pKB=−log IC50/1+[conc agonist/EC50]. Data are expressed as mean±S.E.M, the designation of NT means not tested.

Chain of human orexin 2 receptor (O43614 whole entry): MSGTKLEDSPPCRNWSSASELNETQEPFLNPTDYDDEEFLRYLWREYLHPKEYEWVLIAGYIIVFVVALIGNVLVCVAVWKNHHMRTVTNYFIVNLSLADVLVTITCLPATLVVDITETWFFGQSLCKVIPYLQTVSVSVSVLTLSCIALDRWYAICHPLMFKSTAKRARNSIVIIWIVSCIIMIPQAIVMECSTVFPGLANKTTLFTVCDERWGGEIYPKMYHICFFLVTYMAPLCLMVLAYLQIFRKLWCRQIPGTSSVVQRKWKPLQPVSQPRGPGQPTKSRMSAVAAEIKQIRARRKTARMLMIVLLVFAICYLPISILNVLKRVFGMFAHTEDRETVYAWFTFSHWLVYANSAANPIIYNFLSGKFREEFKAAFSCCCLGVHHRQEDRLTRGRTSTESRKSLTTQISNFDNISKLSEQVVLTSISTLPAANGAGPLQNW

Structure (SMILES) | Kb [nM]
Cc1cc(N(C)C)nc(N2CC3CN(C(=O)c4ccccc4-n4nccn4)CC3C2)n1 (centres unmarked) [Example 119, N,N,6-Trimethyl-2-[5-{[2-(2H-1,2,3-triazol-2-yl)phenyl]carbonyl}hexahydropyrrolo[3,4-c]pyrrol-2(1H)-yl]pyrimidin-4-amine] | 13
CN(C)c1cc(N2CC3CN(C(=O)c4ccc(F)cc4-n4nccn4)CC3C2)nc(C(F)(F)F)n1 (centres unmarked) [Example 6, 6-[5-{[4-Fluoro-2-(2H-1,2,3-triazol-2-yl)phenyl]carbonyl}hexahydropyrrolo[3,4-c]pyrrol-2(1H)-yl]-N,N-dimethyl-2-(trifluoromethyl)pyrimidin-4-amine] | 25
COc1cc(N2CC3CN(C(=O)c4cc(F)ccc4-n4nccn4)CC3C2)nc(N(C)C)n1 (centres unmarked) [Example 4, 4-[5-{[5-Fluoro-2-(2H-1,2,3-triazol-2-yl)phenyl]carbonyl}hexahydropyrrolo[3,4-c]pyrrol-2(1H)-yl]-6-methoxy-N,N-dimethylpyrimidin-2-amine] | 32
COc1cc(N2CC3CN(C(=O)c4ccc(F)cc4-n4nccn4)CC3C2)nc(N(C)C)n1 (centres unmarked) [Example 7, 4-[5-{[4-Fluoro-2-(2H-1,2,3-triazol-2-yl)phenyl]carbonyl}hexahydropyrrolo[3,4-c]pyrrol-2(1H)-yl]-6-methoxy-N,N-dimethylpyrimidin-2-amine] | 13
Cc1ccc2ccccc2c1C(=O)N1CC2CN(c3cnc4ccccc4n3)CC2C1 (centres unmarked) [Example 20, 2-{5-[(2-Methylnaphthalen-1-yl)carbonyl]hexahydropyrrolo[3,4-c]pyrrol-2(1H)-yl}quinoxaline] | 129
COc1cc(N2CC3CN(C(=O)c4ccccc4-n4nccn4)CC3C2)nc(N(C)C)n1 (centres unmarked) [Example 5, 4-Methoxy-N,N-dimethyl-6-[5-{[2-(2H-1,2,3-triazol-2-yl)phenyl]carbonyl}hexahydropyrrolo-[3,4-c]pyrrol-2(1H)-yl]pyrimidin-2-amine] | 5
COc1ccnc(N2CC3CN(C(=O)c4ccccc4-c4cccs4)CC3C2)n1 (centres unmarked) [Example 45, 2-(4-Methoxypyrimidin-2-yl)-5-[(2-thiophen-2-ylphenyl)carbonyl]octahydro-pyrrolo[3,4-c]pyrrole] | 10
COc1cc(N2CC3CN(C(=O)c4c(F)cccc4-n4nccn4)CC3C2)nc(N(C)C)n1 (centres unmarked) [Example 1, 4-[5-{[2-Fluoro-6-(2H-1,2,3-triazol-2-yl)phenyl]carbonyl}hexahydropyrrolo[3,4-c]pyrrol-2(1H)-yl]-6-methoxy-N,N-dimethylpyrimidin-2-amine] | 10
COc1cc(OC)nc(N2CC3CN(C(=O)c4ccccc4-c4ccccn4)CC3C2)n1 (centres unmarked) [Example 70, 2-(4,6-Dimethoxypyrimidin-2-yl)-5-[(2-pyridin-2-ylphenyl)carbonyl]octahydro-pyrrolo[3,4-c]pyrrole] | 40
CCOc1ccc2ccccc2c1C(=O)N1CC2CN(c3nc(C)cc(C)n3)CC2C1 (centres unmarked) [Example 77, 2-(4,6-Dimethylpyrimidin-2-yl)-5-[(2-ethoxynaphthalen-1-yl)carbonyl]octahydro-pyrrolo[3,4-c]pyrrole] | 16
Cc1cc(C)nc(N2CC3CN(C(=O)c4c(C)ccc5ccccc45)CC3C2)n1 (centres unmarked) [Example 47, 2-(4,6-Dimethylpyrimidin-2-yl)-5-[(2-methylnaphthalen-1-yl)carbonyl]octahydro-pyrrolo[3,4-c]pyrrole] | 32
Cc1cccc(N2CC3CN(C(=O)c4ccccc4-c4cccs4)CC3C2)n1 (centres unmarked) [Example 134, 2-(6-Methylpyridin-2-yl)-5-[(2-thiophen-2-ylphenyl)carbonyl]octahydropyrrolo[3,4-c]pyrrole] | 12
COc1ccnc(N2CC3CN(C(=O)c4c(C)ccc5ccccc45)CC3C2)n1 (centres unmarked) [Example 49, 2-(4-Methoxypyrimidin-2-yl)-5-[(2-methylnaphthalen-1-yl)carbonyl]octahydro-pyrrolo[3,4-c]pyrrole] | 32
Cc1cnc(C)c(N2CC3CN(C(=O)c4c(F)cccc4-n4nccn4)CC3C2)n1 (centres unmarked) [Example 101, 2-(3,6-Dimethylpyrazin-2-yl)-5-{[2-fluoro-6-(2H-1,2,3-triazol-2-yl)phenyl]carbonyl}octahydropyrrolo[3,4-c]pyrrole] | 25
Cc1cc(N2CC3CN(C(=O)c4ccccc4-c4nnc[nH]4)CC3C2)nc(C(F)(F)F)n1 (centres unmarked) [Example 96, 2-[6-Methyl-2-(trifluoromethyl)pyrimidin-4-yl]-5-{[2-(4H-1,2,4-triazol-3-yl)phenyl]carbonyl}octahydropyrrolo[3,4-c]pyrrole] | 50
Cc1cc(N2CC3CN(C(=O)c4ccccc4-n4nccn4)CC3C2)nc(N(C)C)n1 (centres unmarked) [Example 120, N,N,4-Trimethyl-6-[5-{[2-(2H-1,2,3-triazol-2-yl)phenyl]carbonyl}hexahydropyrrolo[3,4-c]pyrrol-2(1H)-yl]pyrimidin-2-amine] | 13
Cc1ccc(-c2ncccn2)c(C(=O)N2CC3CN(c4nc(C)cc(C)n4)CC3C2)c1 (centres unmarked) [Example 102, 2-(4,6-Dimethylpyrimidin-2-yl)-5-[(5-methyl-2-pyrimidin-2-ylphenyl)carbonyl]octahydropyrrolo[3,4-c]pyrrole] | 6
CN(C)c1cc(N2CC3CN(C(=O)c4c(F)cccc4-n4nccn4)CC3C2)nc(C(F)(F)F)n1 (centres unmarked) [Example 3, 6-[5-{[2-Fluoro-6-(2H-1,2,3-triazol-2-yl)phenyl]carbonyl}hexahydropyrrolo[3,4-c]pyrrol-2(1H)-yl]-N,N-dimethyl-2-(trifluoromethyl)pyrimidin-4-amine] | 14

More lines, now with the values ahead:

Kb [nM] | Structure (SMILES)
16 | O=C(c1cc(F)ccc1-c1ncccn1)N1CC2CN(c3cnc4ccccc4n3)CC2C1 (centres unmarked) [Example 146, 2-{5-[(5-Fluoro-2-pyrimidin-2-ylphenyl)carbonyl]hexahydropyrrolo[3,4-c]pyrrol-2(1H)-yl}quinoxaline]
7 | Cc1cc(C)nc(N2CC3CN(C(=O)c4ccc(F)cc4-c4ncccn4)CC3C2)n1 (centres unmarked) [Example 231, (5-(4,6-Dimethylpyrimidin-2-yl)hexahydropyrrolo[3,4-c]pyrrol-2(1H)-yl)(4-fluoro-2-(pyrimidin-2-yl)phenyl)methanone]
6 | O=C(c1cccc(F)c1-c1ncccn1)N1CC2CN(c3ncc4cc(F)ccc4n3)CC2C1 (centres unmarked) [Example 243, (3-Fluoro-2-(pyrimidin-2-yl)phenyl)(5-(6-fluoroquinazolin-2-yl)hexahydropyrrolo[3,4-c]pyrrol-2(1H)-yl)methanone]
50 | Cc1cc(C)nc(N2CC3CN(C(=O)c4c(-n5nccn5)ccc5c4OCO5)CC3C2)n1 (centres unmarked) [Example 327, [5-(4,6-Dimethyl-pyrimidin-2-yl)-hexahydro-pyrrolo[3,4-c]pyrrol-2-yl]-(5-[1,2,3]triazol-2-yl-benzo[1,3]dioxol-4-yl)methanone]
7 | Cc1cccc(-c2c(F)cccc2C(=O)N2CC3CN(c4nc(C)cc(C)n4)CC3C2)n1 (centres unmarked) [Example 370, (5-(4,6-Dimethylpyrimidin-2-yl)hexahydropyrrolo[3,4-c]pyrrol-2(1H)-yl)(3-fluoro-2-(6-methylpyridin-2-yl)phenyl)methanone]
9 | O=C(c1cccc(F)c1-c1ncccn1)N1CC2CN(c3cnc4cc(F)c(F)cc4n3)CC2C1 (centres unmarked) [Example 387, (5-(6,7-Difluoroquinoxalin-2-yl)hexahydropyrrolo[3,4-c]pyrrol-2(1H)-yl)(3-fluoro-2-(pyrimidin-2-yl)phenyl)methanone]
8 | COc1ccnc(N2CC3CN(C(=O)c4ccc(F)cc4-n4nccn4)CC3C2)n1 (centres unmarked) [Example 159, 2-{[4-Fluoro-2-(2H-1,2,3-triazol-2-yl)phenyl]carbonyl}-5-(4-methoxypyrimidin-2-yl)octahydropyrrolo[3,4-c]pyrrole]
8 | CCc1c(C)nc(N2CC3CN(C(=O)c4ncccc4-n4nccn4)CC3C2)nc1C (centres unmarked) [Example 385, 2-(5-Ethyl-4,6-dimethylpyrimidin-2-yl)-5-{[3-(2H-1,2,3-triazol-2-yl)pyridin-2-yl]carbonyl}octahydropyrrolo[3,4-c]pyrrole]
4 | Cc1nc(N2CC3CN(C(=O)c4ncccc4-n4nccn4)CC3C2)nc(C)c1C (centres unmarked) [Example 323, 2-{[3-(2H-1,2,3-Triazol-2-yl)pyridin-2-yl]carbonyl}-5-(4,5,6-trimethylpyrimidin-2-yl)octahydropyrrolo[3,4-c]pyrrole]
2 | COc1ccc(C(=O)N2CC3CN(c4ncc(F)c(C)n4)CC3C2)c(-n2nccn2)c1 (centres unmarked) [Example 377, 2-(5-Fluoro-4-methylpyrimidin-2-yl)-5-{[4-methoxy-2-(2H-1,2,3-triazol-2-yl)phenyl]carbonyl}octahydropyrrolo[3,4-c]pyrrole]
2 | Cc1cc(C)nc(N2CC3CN(C(=O)c4cccc(F)c4-c4ncccn4)CC3C2)n1 (centres unmarked) [Example 283, 2-(4,6-Dimethylpyrimidin-2-yl)-5-[(3-fluoro-2-pyrimidin-2-ylphenyl)carbonyl]octahydropyrrolo[3,4-c]pyrrole]
7 | Cc1noc(-c2ccccc2C(=O)N2CC3CN(c4nc(C)c5c(n4)CCC5)CC3C2)n1 (centres unmarked) [Example 319, 4-Methyl-2-[5-{[2-(3-methyl-1,2,4-oxadiazol-5-yl)phenyl]carbonyl}hexahydropyrrolo[3,4-c]pyrrol-2(1H)-yl]-6,7-dihydro-5H-cyclopenta[d]pyrimidine]
25 | COc1cccc(N2CC3CN(C(=O)c4ccccc4-c4cccs4)CC3C2)n1 (centres unmarked) [Example 137, 2-(6-Methoxypyridin-2-yl)-5-[(2-thiophen-2-ylphenyl)carbonyl]octahydro pyrrolo[3,4-c]pyrrole]
2 | Cc1nc(N2CC3CN(C(=O)c4ncccc4-n4nccn4)CC3C2)nc(C)c1F (centres unmarked) [Example 325, 2-(5-Fluoro-4,6-dimethylpyrimidin-2-yl)-5-{[3-(2H-1,2,3-triazol-2-yl)pyridin-2-yl]carbonyl}octahydropyrrolo[3,4-c]pyrrole]
